What was measured:
Format in all cases: in vivo
tomato powdery mildew = assay: Tomato Powdery Mildew - Site 1, foliar sprays; settings: 12 days from fourth application; TG 0.3%, Azoxystrobin 50 cc/dunam, alone or combined
Procedure: (§1) Various combinations of TTO (supplied as Timorex Gold®) and synthetic fungicidal compositions (supplied as commercial products to be diluted by the end user prior to use) were tested against tomato powdery mildew and pepper powdery mildew. Open field or greenhouse-grown plants of the crops studied were drip irrigated and fertilized according to known recommendations for each crop. Treatments were applied in a randomized complete block, with 5 replications per treatment. Plot size in each instance was of 5-10 m length, containing 6-20 plants, depending on the crop. Fungicidal treatment was applied using backpack sprayer equipped with a mist blower (STHIL 340) to spray a volume of 600 liter/ha, depending on the crop. From three to eight foliar sprays were applied at 7-14 day intervals, depending on the crop. Disease severity was evaluated by determining the leaf area covered with powdery mildew (disease severity) on each of 20 leaves randomly selected per each replicate. […] To analyze the results, an arc-sin transformation was performed on the raw data, and analysis of variance (ANOVA) using the SAS GLM procedure was applied to the transformed data. The Tukey-Kramer Test was applied to determine whether differences between treatments were significant. In the tables, “a”, “b” and “c”, refer to differences in statistical analysis that are familiar to users of the Tukey-Kramer test; “SF” is the “synergy” factor, calculated using the Abbott formula (SF=observed efficacy (Eobs)/expected efficacy (Eexp), where Eexp=α+β−[…], where α and β denote the levels of control afforded by materials α and β, respectively, alone; see e.g. Levy et al., EPPO Bull. 16, 651-657 (1986)).

pepper powdery mildew [1] = assay: Pepper Powdery Mildew - Site 1, foliar sprays; settings: 14 days from third application; TG 0.3%, Triadimenol 75 cc/dunam, Azoxystronin 50 cc/dunam, Trifloxystrobin 20 cc/dunam, alone or combined with TG
Procedure: as §1

pepper powdery mildew [2] = assay: Pepper Powdery Mildew - Site 2, foliar sprays; settings: 15 days from ninth application; TG 0.3%, Trifloxystrobin 20 gr/dunam, Myclobutanil 60 gr/dunam, alone or combined with TG
Procedure: Various combinations of TTO (supplied as Timorex Gold®) and synthetic fungicidal compositions (supplied as commercial products to be diluted by the end user prior to use) were tested against tomato powdery mildew and pepper powdery mildew. Open field or greenhouse-grown plants of the crops studied were drip irrigated and fertilized according to known recommendations for each crop. Treatments were applied in a randomized complete block, with 5 replications per treatment. Plot size in each instance was of 5-10 m length, containing 6-20 plants, depending on the crop. Fungicidal treatment was applied using backpack sprayer equipped with a mist blower (STHIL 340) to spray a volume of 600 liter/ha, depending on the crop. […] Disease severity was evaluated by determining the leaf area covered with powdery mildew (disease severity) on each of 20 leaves randomly selected per each replicate. […] To analyze the results, an arc-sin transformation was performed on the raw data, and analysis of variance (ANOVA) using the SAS GLM procedure was applied to the transformed data. The Tukey-Kramer Test was applied to determine whether differences between treatments were significant. In the tables, “a”, “b” and “c”, refer to differences in statistical analysis that are familiar to users of the Tukey-Kramer test; “SF” is the “synergy” factor, calculated using the Abbott formula (SF=observed efficacy (Eobs)/expected efficacy (Eexp), where Eexp=α+β−[…], where α and β denote the levels of control afforded by materials α and β, respectively, alone; see e.g. Levy et al., EPPO Bull. 16, 651-657 (1986)).

## CO/C=C(/C(=O)OC)c1ccccc1Oc1cc(Oc2ccccc2C#N)ncn1 [Azoxystrobin]
Tomato powdery mildew
  Incidence: % leaves infected: 45%
  Incidence: Efficacy (%): 55.0%
  Severity: % infected leaf area: 5%
  Severity: Efficacy (%): 91.7%
Pepper powdery mildew [1]
  Incidence: % leaves infected: 22.5%
  Incidence: Efficacy (%): 73.1%
  Severity: % infected leaf area: 2.9%
  Severity: Efficacy (%): 88.1%

## CCCCC(C#N)(Cn1cncn1)c1ccc(Cl)cc1 (stereo not drawn) [Myclobutanil]
Pepper powdery mildew [2]
  Incidence: % leaves infected: 2%
  Incidence: Efficacy (%): 96.9%
  Severity: % infected leaf area: 0%
  Severity: Efficacy (%): 100.0%

## CC(C)(C)C(O)C(Oc1ccc(Cl)cc1)n1cncn1 (stereo not drawn) [Triadimenol]
Pepper powdery mildew [1]
  Incidence: % leaves infected: 48.7%
  Incidence: Efficacy (%): 41.8%
  Severity: % infected leaf area: 8.4%
  Severity: Efficacy (%): 65.6%

## CON=C(C(=O)OC)c1ccccc1CON=C(C)c1cccc(C(F)(F)F)c1 [Trifloxystrobin]
Pepper powdery mildew [1]
  Incidence: % leaves infected: 25%
  Incidence: Efficacy (%): 70.1%
  Severity: % infected leaf area: 1.9%
  Severity: Efficacy (%): 92.2%
Pepper powdery mildew [2]
  Incidence: % leaves infected: 2%
  Incidence: Efficacy (%): 96.9%
  Severity: % infected leaf area: 0.1%
  Severity: Efficacy (%): 99.6%
